Measurements taken from US12318462B2, “Multi-coated nanoparticles comprising multiple coating layers of chitosan and polyglutamic acid, composition for skin care comprising the same and method for manufacturing the same” (BINOTEC co., ltd., priority 2020, dated 2025).

Test: DPPH radical scavenging ability of nanoparticles by time
Format: biochemical
Protocol: DPPH radical scavenging ability was measured to confirm the effect of antioxidant physiological activity according to the sustained-release release of nanoparticles according to the coating layer structure and amount of hydrogel.
50 μL of 0.2 mM 1,1-diphenyl-2-picrylhydrazyl (DPPH) was added to 100 ul of each sample solution. Then, it was stirred and reacted at room temperature for 30 minutes, and then the ELISA reader (Powerwave XS2, Biotek, USA) was used to measure the absorbance at […]. The control groups were Butylated Hydroxynisole (BHA) and Catechin.
Next, using Equation 2 below, the DPPH radical scavenging ability of each nanoparticle was calculated. DPPH radical scavenging ability (%)=(1−absorbance of sample added group/absorbance of no added group)×100 [Equation 2]

Row | Compound | DPPH radical scavenging ability (18 hr) [%] | DPPH radical scavenging ability (24 hr) [%] | DPPH radical scavenging ability (48 hr) [%]
1 | COc1ccc(O)c(C(C)(C)C)c1 [BHA, Butylated Hydroxynisole] | 93.2084 | 82.3362 | 47.0031
2 | Catechin | 93.4211 | 87.4680 | 70.5607
